In publication PMC6153936, “Bisarylureas Based on 1H-Pyrazolo[3,4-d]pyrimidine Scaffold as Novel Pan-RAF Inhibitors with Potent Anti-Proliferative Activities: Structure-Based Design, Synthesis, Biological Evaluation and Molecular Modelling Studies” (Molecules : A Journal of Synthetic Chemistry and Natural …, 2017):

Assays:
[1] = molecular target: AURKA (Aurora A) (Homo sapiens, UniProt O14965); test: Kinase selectivity profile; format: biochemical
[2] = molecular target: ErbB4 (HER4) (Homo sapiens, UniProt Q15303); test: Kinase selectivity profile; format: biochemical
[3] = system: HT-29; test: MTT anti-proliferative assay, HT-29; format: cell-based; settings: Homo sapiens, 48 h
Experimental: (§2) All cell lines were purchased from Cell Bank of China Science Academy (Shanghai, China). All chemicals and solvents were purchased from Sigma-Aldrich (St. Louis, MO, USA) or Gibco (Gibco BRL, Grand Island, NY, USA). The PC-3 and A375 cell lines was maintained in Dulbecco's modified eagle (DEME) medium supplement with 10% fetal bovine serum (FBS) and 1% penicillin–streptomycin. The others were cultured in Roswell Park Memorial Institute (RPMI) 1640 medium supplement with 10% fetal bovine serum (FBS) and 1% penicillin–streptomycin. Approximately 5 × 10^3 cells, suspended in medium, were plated into each well of a 96-well plate and grown at 37 °C in a humidified atmosphere with 5% CO2 for 24 h. The following day, various concentrations of tested compounds were added to the culture medium and incubated for 48 h. Fresh MTT was added to each well at the terminal concentration of 5 mg/mL in phosphate buffered saline (PBS), and incubated with cells at 37 °C for 4 h. The formazan crystals in each well were dissolved in 150 μL DMSO, and the absorbency at 570 nm was measured with an enzyme-linked immunosorbent assay plate reader. All of the compounds were tested three times in each of the cell lines.

[4] = molecular target: BRAF (wt) (Homo sapiens, UniProt P15056); test: Kinase selectivity profile; format: biochemical
Sequence of BRAF (wt) (P15056 whole entry): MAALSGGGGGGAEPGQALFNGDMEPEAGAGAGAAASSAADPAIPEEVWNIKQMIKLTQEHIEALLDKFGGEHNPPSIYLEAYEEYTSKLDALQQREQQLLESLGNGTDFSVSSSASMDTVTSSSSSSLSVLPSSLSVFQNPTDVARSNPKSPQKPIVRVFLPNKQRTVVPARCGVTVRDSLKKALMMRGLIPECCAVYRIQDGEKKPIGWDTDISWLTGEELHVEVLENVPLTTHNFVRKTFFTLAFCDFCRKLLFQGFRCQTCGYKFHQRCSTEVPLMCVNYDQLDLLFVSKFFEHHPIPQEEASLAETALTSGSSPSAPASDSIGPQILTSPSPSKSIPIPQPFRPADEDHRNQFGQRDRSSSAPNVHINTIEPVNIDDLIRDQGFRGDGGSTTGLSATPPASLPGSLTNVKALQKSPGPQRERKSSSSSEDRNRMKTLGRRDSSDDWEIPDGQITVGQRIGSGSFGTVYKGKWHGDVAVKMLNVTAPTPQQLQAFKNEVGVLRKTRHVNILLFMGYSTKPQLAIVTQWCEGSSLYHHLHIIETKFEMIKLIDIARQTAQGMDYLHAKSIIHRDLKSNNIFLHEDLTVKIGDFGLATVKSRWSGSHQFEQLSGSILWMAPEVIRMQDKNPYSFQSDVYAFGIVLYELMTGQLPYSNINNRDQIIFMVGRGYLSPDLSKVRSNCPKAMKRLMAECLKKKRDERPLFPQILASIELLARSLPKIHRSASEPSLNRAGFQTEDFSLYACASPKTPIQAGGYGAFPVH

[5] = system: A549; test: MTT anti-proliferative assay, A549; format: cell-based, human; settings: Homo sapiens, A549; MTT, 48 h
Experimental: as §2

[6] = molecular target: PTK2 (FAK) (Homo sapiens, UniProt Q05397); test: Kinase selectivity profile; format: biochemical
[7] = molecular target: FLT1 (VEGFR1) (Homo sapiens, UniProt P17948); test: Kinase selectivity profile; format: biochemical
[8] = molecular target: MST1R (RON) (Homo sapiens, UniProt Q04912); test: Kinase selectivity profile; format: biochemical
Sequence of MST1R (RON) (Q04912 25-1400): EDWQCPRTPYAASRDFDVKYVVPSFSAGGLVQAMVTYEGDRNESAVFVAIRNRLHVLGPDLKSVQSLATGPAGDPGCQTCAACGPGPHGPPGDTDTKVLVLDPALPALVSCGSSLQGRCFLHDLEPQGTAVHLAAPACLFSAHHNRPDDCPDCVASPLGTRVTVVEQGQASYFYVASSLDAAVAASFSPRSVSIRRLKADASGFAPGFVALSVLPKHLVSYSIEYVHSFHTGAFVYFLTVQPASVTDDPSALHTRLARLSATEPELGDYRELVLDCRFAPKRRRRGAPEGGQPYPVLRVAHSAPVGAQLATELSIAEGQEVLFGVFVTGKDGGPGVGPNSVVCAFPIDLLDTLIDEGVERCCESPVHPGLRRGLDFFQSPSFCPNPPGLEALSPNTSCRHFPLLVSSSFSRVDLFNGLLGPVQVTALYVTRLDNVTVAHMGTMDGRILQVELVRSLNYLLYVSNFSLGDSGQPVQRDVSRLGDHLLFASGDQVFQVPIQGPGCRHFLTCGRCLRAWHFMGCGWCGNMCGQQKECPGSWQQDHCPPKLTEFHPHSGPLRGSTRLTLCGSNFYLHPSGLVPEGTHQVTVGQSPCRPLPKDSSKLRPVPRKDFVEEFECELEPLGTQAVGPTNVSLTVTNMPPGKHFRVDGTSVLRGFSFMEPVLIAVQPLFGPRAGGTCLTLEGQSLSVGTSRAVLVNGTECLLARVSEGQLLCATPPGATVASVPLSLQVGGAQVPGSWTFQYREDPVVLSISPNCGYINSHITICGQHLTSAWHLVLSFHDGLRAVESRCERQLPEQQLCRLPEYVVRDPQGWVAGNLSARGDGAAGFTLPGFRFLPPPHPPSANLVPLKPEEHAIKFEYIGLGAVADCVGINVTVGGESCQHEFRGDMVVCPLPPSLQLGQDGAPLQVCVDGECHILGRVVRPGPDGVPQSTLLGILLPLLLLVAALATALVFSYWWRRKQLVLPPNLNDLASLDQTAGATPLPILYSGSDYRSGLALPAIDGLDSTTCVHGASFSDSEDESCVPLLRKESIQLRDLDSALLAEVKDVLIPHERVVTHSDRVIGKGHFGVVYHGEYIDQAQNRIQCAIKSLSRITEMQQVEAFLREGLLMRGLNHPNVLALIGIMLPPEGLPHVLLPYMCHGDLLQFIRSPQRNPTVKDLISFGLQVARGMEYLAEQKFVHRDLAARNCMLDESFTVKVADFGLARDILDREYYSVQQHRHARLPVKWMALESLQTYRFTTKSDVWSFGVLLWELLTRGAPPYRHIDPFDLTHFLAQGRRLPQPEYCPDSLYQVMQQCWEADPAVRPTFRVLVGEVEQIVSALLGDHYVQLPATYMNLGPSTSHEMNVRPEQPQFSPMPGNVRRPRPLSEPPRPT

[9] = molecular target: LTK (TYK1) (Homo sapiens, UniProt P29376); test: Kinase selectivity profile; format: biochemical
[10] = system: A375; test: MTT anti-proliferative assay, A375; format: cell-based; settings: Homo sapiens, A-375, 48 h
Experimental: as §2

[11] = molecular target: EGFR (ErbB1) (Homo sapiens, UniProt P00533); test: Kinase selectivity profile; format: biochemical
Sequence of EGFR (ErbB1) (P00533 25-1210): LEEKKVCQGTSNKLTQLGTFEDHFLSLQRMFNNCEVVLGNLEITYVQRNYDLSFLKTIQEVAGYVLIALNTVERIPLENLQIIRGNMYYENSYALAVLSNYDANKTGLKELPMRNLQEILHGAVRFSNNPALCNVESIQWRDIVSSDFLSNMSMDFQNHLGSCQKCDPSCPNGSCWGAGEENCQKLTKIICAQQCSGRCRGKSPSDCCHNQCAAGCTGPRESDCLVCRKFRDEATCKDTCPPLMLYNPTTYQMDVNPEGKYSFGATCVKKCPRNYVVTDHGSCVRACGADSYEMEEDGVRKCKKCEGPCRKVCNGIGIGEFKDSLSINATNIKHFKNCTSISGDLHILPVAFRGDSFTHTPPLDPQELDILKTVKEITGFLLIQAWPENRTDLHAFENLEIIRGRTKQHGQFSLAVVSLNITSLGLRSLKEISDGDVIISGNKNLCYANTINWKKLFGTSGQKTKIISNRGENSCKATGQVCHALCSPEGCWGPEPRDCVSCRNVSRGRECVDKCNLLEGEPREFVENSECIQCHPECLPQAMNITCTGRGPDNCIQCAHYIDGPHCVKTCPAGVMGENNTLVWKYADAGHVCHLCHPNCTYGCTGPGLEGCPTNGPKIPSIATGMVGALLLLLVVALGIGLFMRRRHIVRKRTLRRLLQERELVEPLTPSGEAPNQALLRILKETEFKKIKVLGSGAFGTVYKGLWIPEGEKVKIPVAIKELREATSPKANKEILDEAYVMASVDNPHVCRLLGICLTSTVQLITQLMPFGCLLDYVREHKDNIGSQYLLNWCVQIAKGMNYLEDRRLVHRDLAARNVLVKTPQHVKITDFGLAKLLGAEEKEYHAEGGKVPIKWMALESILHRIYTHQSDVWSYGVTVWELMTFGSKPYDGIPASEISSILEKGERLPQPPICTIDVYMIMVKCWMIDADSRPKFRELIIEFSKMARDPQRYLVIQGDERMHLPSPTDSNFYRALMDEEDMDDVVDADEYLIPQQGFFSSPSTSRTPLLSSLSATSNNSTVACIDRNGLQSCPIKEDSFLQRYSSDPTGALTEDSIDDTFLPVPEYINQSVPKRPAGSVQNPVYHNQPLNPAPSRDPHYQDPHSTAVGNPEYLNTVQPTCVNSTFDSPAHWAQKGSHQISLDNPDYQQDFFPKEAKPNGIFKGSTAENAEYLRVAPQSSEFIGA

[12] = molecular target: VEGFR-2 (Homo sapiens, UniProt P35968); test: Kinase selectivity profile; format: biochemical
Sequence of VEGFR-2 (P35968 20-1356): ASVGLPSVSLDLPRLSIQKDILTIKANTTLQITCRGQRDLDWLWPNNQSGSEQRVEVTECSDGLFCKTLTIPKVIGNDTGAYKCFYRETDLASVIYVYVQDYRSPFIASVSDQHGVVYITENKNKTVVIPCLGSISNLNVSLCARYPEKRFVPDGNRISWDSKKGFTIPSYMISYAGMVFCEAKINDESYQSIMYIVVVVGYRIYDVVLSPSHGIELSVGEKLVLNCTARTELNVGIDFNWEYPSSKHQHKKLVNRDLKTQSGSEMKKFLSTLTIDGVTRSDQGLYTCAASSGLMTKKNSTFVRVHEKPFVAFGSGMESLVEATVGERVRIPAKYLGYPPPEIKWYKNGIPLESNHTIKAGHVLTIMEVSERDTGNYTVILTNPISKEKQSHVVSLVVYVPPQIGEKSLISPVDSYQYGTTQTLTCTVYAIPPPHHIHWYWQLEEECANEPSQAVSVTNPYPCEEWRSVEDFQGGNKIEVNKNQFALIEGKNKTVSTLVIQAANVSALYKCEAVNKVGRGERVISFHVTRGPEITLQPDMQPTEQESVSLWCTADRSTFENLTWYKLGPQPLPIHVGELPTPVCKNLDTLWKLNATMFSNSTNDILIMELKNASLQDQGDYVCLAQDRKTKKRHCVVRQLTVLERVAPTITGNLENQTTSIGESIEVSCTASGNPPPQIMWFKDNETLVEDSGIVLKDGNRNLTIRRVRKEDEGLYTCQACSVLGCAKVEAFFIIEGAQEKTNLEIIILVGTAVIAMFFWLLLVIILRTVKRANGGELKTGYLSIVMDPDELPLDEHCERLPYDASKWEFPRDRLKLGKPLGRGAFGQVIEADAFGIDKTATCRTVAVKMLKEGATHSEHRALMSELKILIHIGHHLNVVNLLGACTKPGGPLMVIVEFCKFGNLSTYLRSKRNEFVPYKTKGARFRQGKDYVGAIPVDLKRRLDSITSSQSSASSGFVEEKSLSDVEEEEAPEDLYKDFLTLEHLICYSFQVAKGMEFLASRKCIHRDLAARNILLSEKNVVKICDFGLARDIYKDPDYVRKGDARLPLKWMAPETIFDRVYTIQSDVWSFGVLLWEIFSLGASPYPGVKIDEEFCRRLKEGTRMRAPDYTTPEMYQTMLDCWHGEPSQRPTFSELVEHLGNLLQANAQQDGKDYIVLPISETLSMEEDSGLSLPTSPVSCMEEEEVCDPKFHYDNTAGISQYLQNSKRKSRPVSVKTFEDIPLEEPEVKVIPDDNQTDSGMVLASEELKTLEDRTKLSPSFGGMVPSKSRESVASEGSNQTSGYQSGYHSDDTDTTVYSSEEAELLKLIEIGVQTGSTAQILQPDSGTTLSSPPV

[13] = molecular target: ABL1 (Homo sapiens, UniProt P00519); test: Kinase selectivity profile; format: biochemical
[14] = molecular target: LCK (Homo sapiens, UniProt P06239); test: Kinase selectivity profile; format: biochemical
[15] = MTT cytotoxic assay, normal cell line MDCK; settings: dog, MDCK cells (normal cell line)
Experimental: as §2

[16] = system: phosphor-MEK protein in A375 cell line; test: Western blot of phosphor-MEK, A375; format: cell-based, human; settings: A375, 48 h treatment
Experimental: (§1) Total cells were harvested after treatment, washed twice with cold PBS, and lysed with RIPA lysis buffer (KeyGEN BioTECH, Nanjing, China) including 1% cocktail (Selleck Chemicals, Houston, TX, USA). Lysates were centrifuged at 12,000× g at 4 °C for 15 min, and the supernatant was collected. Total protein concentration was quantified using the bicinchoninic acid (BCA; Beyotime Institute of Biotechnology, Nanjing, China) protein assay kit (Sigma Chemical Co., St. Louis, MO, USA). The proteins were separated electrophoretically using 10% sodium dodecyl sulfate polyacrylamide gel electrophoresis (SDS-PAGE) and then the gel was transferred onto polyvinylidene fluoride (PVDF; Millipore, Billerica, MA, USA) membranes. […] The immunobands were detected with an enhanced chemiluminescence kit (Beyotime Institute of Biotechnology, Nanjing, China).

[17] = system: phosphor-MEK protein in HT-29 cell line; test: Western blot of phosphor-MEK, HT-29; format: cell-based, human; settings: HT-29, 48 h treatment
Experimental: as §1

[18] = molecular target: MET (c-Met) (Homo sapiens, UniProt P08581); test: Kinase selectivity profile; format: biochemical
[19] = molecular target: RAF1 (CRAF) (Homo sapiens, UniProt P04049); test: Kinase selectivity profile; format: biochemical
Sequence of RAF1 (CRAF) (P04049 342-648 limits assumed): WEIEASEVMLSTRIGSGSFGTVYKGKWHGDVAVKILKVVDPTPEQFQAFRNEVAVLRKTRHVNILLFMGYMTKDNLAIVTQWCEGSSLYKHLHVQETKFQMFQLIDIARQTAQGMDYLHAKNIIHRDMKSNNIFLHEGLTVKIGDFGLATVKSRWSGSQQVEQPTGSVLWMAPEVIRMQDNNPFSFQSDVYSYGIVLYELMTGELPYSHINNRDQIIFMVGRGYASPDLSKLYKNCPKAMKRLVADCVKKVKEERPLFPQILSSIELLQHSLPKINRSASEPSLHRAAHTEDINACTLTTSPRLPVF

[20] = molecular target: EPHA2 (Homo sapiens, UniProt P29317); test: Kinase selectivity profile; format: biochemical
[21] = system: PC-3; test: MTT anti-proliferative assay, PC-3; format: cell-based, human; settings: Homo sapiens, PC-3; MTT, 48 h
Experimental: as §2

[22] = molecular target: FLT4 (VEGFR3) (Homo sapiens, UniProt P35916); test: Kinase selectivity profile; format: biochemical
[23] = molecular target: ABL2 (Arg) (Homo sapiens, UniProt P42684); test: Kinase selectivity profile; format: biochemical
[24] = molecular target: T1, BRAF^V600E (Homo sapiens, UniProt P15056, V600E); test: BRAF^V600E kinase inhibition, Z'-LYTE; format: biochemical
T1 construct: purchased Life Technologies
T1 sequence (P15056 whole entry V600E): as the sequence (P15056 whole entry) above, with V600E counted along it
Experimental: The experiments were performed according to the instructions of the manufacturer, and single point concentration testing with two independent data points (n = 2). […] The IC50 values were calculated from the inhibition curves from two separate experiments.

[25] = molecular target: ErbB2 (HER2) (Homo sapiens, UniProt P04626); test: Kinase selectivity profile; format: biochemical
[26] = system: A375 cell line; test: Flow cytometric analysis of cell cycle distribution; format: cell-based, human; settings: for G0/G1 (%) / G2/M (%) / S (%) / Sub-G1 (%): 48 h
Experimental: The effect of compound 1v on cell cycle phase distribution of human malignant melanoma A375 was assessed using flow cytometry. When the cells grew to about 70% confluence in 6-well microplates, they were treated with compound 1v at given concentrations (6.11 μmol/L, 12.21 μmol/L, 24.42 μmol/L). After 48 h, cells were harvested by trypsinization, washed with PBS, and fixed in 70% ice cold (4 °C) ethanol overnight. They were then washed with PBS, incubated with Ribonuclease (RNase) ([…] final concentration) at 37 °C for 30 min, stained with propidium iodide ([…] final concentration), and analyzed by flow cytometry (BD FACS Canto II, BD Biosciences, San Jose, CA, USA).

[27] = molecular target: AURKB (Aurora B) (Homo sapiens, UniProt Q96GD4); test: Kinase selectivity profile; format: biochemical
[28] = molecular target: ALK (Homo sapiens, UniProt Q9UM73); test: Kinase selectivity profile; format: biochemical

SMILES: Cn1ncc2c(Oc3ccc(NC(=O)Nc4ccc(Cl)c(C(F)(F)F)c4)cc3)ncnc21 [Compound 1v, 1-(4-Chloro-3-(trifluoromethyl)phenyl)-3-(4-((1-methyl-1H-pyrazolo[3,4-d]pyrimidin-4-yl)oxy)phenyl)urea]
- Inhibition % at 1 μΜ, AURKA (Aurora A) [1]: 17%
- Inhibition % at 1 μΜ, ErbB4 (HER4) [2]: 7%
- melting point: 212.1 to 213 °C
- IC50 [3]: 14.7 µM
- Inhibition % at 1 μΜ, BRAF (wt) ([4]; 1 μΜ): 105%
- IC50 ([4]; in parentheses in Table 4, read-out: wild-type BRAF IC50): 0.0515 µM
- IC50 [5]: 12.5 µM
- Inhibition % at 1 μΜ, PTK2 (FAK) [6]: 13%
- Inhibition % at 1 μΜ, FLT1 (VEGFR1) [7]: 31%
- Inhibition % at 1 μΜ, MST1R (RON) [8]: −2%
- Inhibition % at 1 μΜ, LTK (TYK1) [9]: 3%
- IC50 [10]: 12.2 µM
- Inhibition % at 1 μΜ, EGFR (ErbB1) [11]: 8%
- Inhibition % at 1 μΜ, VEGFR-2 [12]: 56%
- Inhibition % at 1 μΜ, ABL1 [13]: 5%
- Inhibition % at 1 μΜ, LCK [14]: 20%
- IC50 at 48 h [15]: > 80 µM
- phosphor-MEK levels (western blot) [16]: suppressed phosphor-MEK levels in a concentration-dependent manner
- phosphor-MEK levels (western blot) [17]: suppressed phosphor-MEK levels in a concentration-dependent manner
- Inhibition % at 1 μΜ, MET (c-Met) [18]: 6%
- Inhibition % at 1 μΜ, RAF1 (CRAF) ([19]; 1 μΜ): 102%
- IC50 ([19]; in parentheses in Table 4, read-out: C-RAF IC50): 0.0085 µM
- Inhibition % at 1 μΜ, EPHA2 [20]: 2%
- IC50 [21]: 23.4 µM
- Inhibition % at 1 μΜ, FLT4 (VEGFR3) [22]: 58%
- Inhibition % at 1 μΜ, ABL2 (Arg) [23]: 4%
- inhibition at 0.1 µM ([24]; 100 nM, average of two independent experiments): 81%
- inhibition at 1 µM ([24]; 1000 nM, average of two independent experiments): 97%
- IC50 ([24]; ten concentrations 1000 to 0.0508 nM, two independent experiments): 0.0236 µM
- Inhibition % at 1 μΜ, ErbB2 (HER2) [25]: −7%
- G0/G1 (%) ([26]; A375, 6.11 μmol/L): 42.53%
- G2/M (%) ([26]; A375, 6.11 μmol/L): 10.94%
- S (%) ([26]; A375, 6.11 μmol/L): 38.25%
- Sub-G1 (%) ([26]; A375, 6.11 μmol/L): 4.39%
- G0/G1 (%) ([26]; A375, 12.21 μmol/L): 47.94%
- G2/M (%) ([26]; A375, 12.21 μmol/L): 7.39%
- S (%) ([26]; A375, 12.21 μmol/L): 38.13%
- Sub-G1 (%) ([26]; A375, 12.21 μmol/L): 2.12%
- G0/G1 (%) ([26]; A375, 24.42 μmol/L): 52.73%
- G2/M (%) ([26]; A375, 24.42 μmol/L): 5.48%
- S (%) ([26]; A375, 24.42 μmol/L): 36.19%
- Sub-G1 (%) ([26]; A375, 24.42 μmol/L): 5.48%
- effect on cell cycle progression ([26]; A375, 48 h, G0/G1 phase): dose-dependent cell cycle arrest
- Inhibition % at 1 μΜ, AURKB (Aurora B) [27]: 42%
- Inhibition % at 1 μΜ, ALK [28]: 7%
